Earlier results in patent US7205279B2, “Pharmaceutical compositions” (Novartis AG, priority 1995, dated 2007).

Settings: room temperature

CCOC(C)=O [Ethyl acetate]
solubility in water: 8.5 g per 100 ml
